{"source": "patent US20260055375A1", "about": "“CULTURE METHOD” (Babraham Institute, priority 2023, published 2026)", "key": {"[1]": {"tested_on": "epithelial endometrial cells", "assay": "Morphometric analysis of surface epithelial cells in hormone-stimulated endometrium assembloid", "type": "cell-based, human", "procedure": "(§1) Hormone stimulation scheme aimed to recapitulate the mid-secretory phase of human endometrial cycle when receptive phenotype optimal for embryo implantation, known as window of implantation, is acquired. For this purpose, β-oestradiol (E2) stimulation was started in upper and lower compartments for 4 days to simulate the proliferative phase of human endometrial cycle. A total volume of 300 μL of organoid media supplemented by 2% charcoal stripped FBS (Sigma Aldrich, F6765) and 10 nM of β-oestradiol (E2, Sigma E4389) was added to the top compartment of the transwell culture system. A total volume of 1 mL of hEnSC medium supplemented by 2% charcoal stripped FBS (Sigma Aldrich, F6765) and 10 nM of β-oestradiol (E2, Sigma E4389) was added to the lower compartment. Media were changed each 2 days. After 4 days, upper and lower compartments were stimulated with full hormone mixture containing E2, progesterone (P4) and 8-bromoadenosine 3′,5′-cyclic monophosphate (CAMP) for 8 days. A total volume of 300 μL of organoid media supplemented by 2% charcoal stripped FBS (Sigma Aldrich, F6765), 10 nM of E2 (Sigma E4389), 1 μM of P4 (Sigma P7556) and 1 μM of cAMP (Sigma, B7880) was added to the top compartment of the transwell culture system. A total volume of 1 mL of hEnSC medium supplemented by 2% charcoal stripped FBS (Sigma Aldrich, F6765) and […] (Sigma E4389), 1 μM of P4 (Sigma P7556) and […] (Sigma, B7880) was added to the lower compartment. Media were changed each 2 days.\n(§2) Morphometric analyses were performed on stromal and epithelial compartments on proliferative phase (after 4 days of E2 stimulation) and secretory phase (after 8 days of stimulation with E2, P4 and cAMP).\nCell segmentation and cell morphometric analyses were performed from confocal microscopy images of stromal and epithelial compartment. Vimentin and cytokeratin-7 were used as stromal and epithelial markers, respectively, to determine stromal and epithelial compartment. Phalloidin signal was used to perform cell segmentation of stromal and epithelial compartments. Cell segmentation was done in an intermediate field of the whole Z-stack, choosing a relatively flat area to maximize the accuracy of the segmentation using Fiji (https://imagej.net/software/fiji/).\nEpithelial cells were segmented manually using polygon selection tool from Fiji. Cell contour was drawn with multiple points to accurately fit perimeter of each cell segmented. Fit spline option (“Edit”>“Selection”>“Fit spline”) was used in all cases to smooth cell contour and maximize the match of manual cell segmentation with cell perimeter. Each Region Of Interest (ROI) corresponding to each epithelial cell segmented was added to ROI manager (“Analyse”>“Tools” >“ROI manager”).\nOnce acquired all ROI, the following measurements were set (“Analyse”>“Set Measurements”): area (μm^2), perimeter (μm), and shape descriptors roundness, circularity, aspect ratio, and solidity. Roundness ((4·area)/(π·major axis^2)) ranges from 0 to 1 indicating elongated or circle-like shape. Circularity (4π·area/perimeter^2) ranges from 0 to 1 and correlates with shape roughness. Aspect ratio is defined as the ratio between major and minor axis of the best fit ellipse. Solidity, defined as a ratio between area and convex area, ranges from 0 to 1, describing a concave or convex shape."}, "[2]": {"tested_on": "endometrial stromal cells", "assay": "Morphometric analysis of stromal cells in hormone-stimulated endometrium assembloid", "type": "cell-based, human", "procedure": "as §1, §2\nCell segmentation and cell morphometric analyses were performed from confocal microscopy images of stromal and epithelial compartment. […]\nStromal length (μm) and width (μm) were acquired for each cell using the line tool from Fiji. […] In this case, only line measurements (in μm) corresponding to length and width of each stromal cell were recorded to calculate length/width ratio. […]"}, "[3]": {"details": "stromal cells, proliferative (E2 4 days) vs secretory (E2, P4 and cAMP 8 days)"}}}
{"smiles": "C[C@]12CC[C@@H]3c4ccc(O)cc4CC[C@H]3[C@@H]1CC[C@@H]2O", "note": "[E2, β-oestradiol]", "values": [{"measurement": "surface area (median)", "setting": "[1]; proliferative (E2 4 days) vs secretory (E2, P4 and cAMP 8 days)", "result": 75.67, "unit": "μm^2"}, {"measurement": "aspect ratio (AR) (median)", "setting": "[1]; proliferative vs secretory", "result": 1.584}, {"measurement": "cell perimeters (median)", "setting": "[1]; proliferative vs secretory", "result": 34.61, "unit": "μm"}, {"measurement": "cell roundness (median)", "setting": "[1]; proliferative vs secretory", "result": 0.6315}, {"measurement": "circularity (median)", "setting": "[1]; proliferative vs secretory", "result": 0.7920}, {"measurement": "solidity (median)", "setting": "[1]; proliferative vs secretory", "result": 0.9820}, {"measurement": "length/width ratio (median)", "setting": "[2]; stromal cells in 3D, proliferative phase = E2 4 days, secretory phase = E2, P4 and cAMP 8 days", "result": 9.14}, {"measurement": "cell length (median)", "setting": "[2]; [3]", "result": 105.4, "unit": "μm"}, {"measurement": "cell width (median)", "setting": "[2]; [3]", "result": 11.39, "unit": "μm"}]}
